Read-outs that look alike come from different tables or passages of the source.
Assays:
Myc353–437 [1] = molecular target: T1, Myc353–437 (Homo sapiens, UniProt P01106); experiment: Tyrosine fluorescence quenching titration, excess 34RH; conditions: 1 µM Myc353–437, excess 34RH, 1xPBS, 25 °C, pH 7.4; Langmuir binding isotherm; read-out: dissociation constant (KD)
T1 construct: 6xHis tag + TEV site (N, cleaved yes); made in house; host or cells: E. coli BL21(DE3) pLysS
Description: (§1) The lyophilized protein (or peptide) was reconstituted in ultrapure water and incubated to room temperature for at least 1 hr. The protein or peptide was then sterile filtered using a pre-wet 0.2 μm polyethylene sulfone (PES) filter (VWR), and the concentration was determined by the absorbance at 274 nm using the extinction coefficient per tyrosine of ε274 = 1470 M^−1cm^−1. The final stock concentrations ranged from 50 to 100 μM.
For excess 34RH tyrosine fluorescence quenching experiments, samples were prepared with the following buffer components: sterile filtered water, 1xPBS (137 mM NaCl, 2.7 mM KCl, 4.3 mM Na2HPO4, 1.4 mM KH2PO4), and 5% total DMSO. […] All samples for fluorescence measurements maintained a final 5% DMSO concentration.
The samples were incubated for at least 15 min before fluorescence was measured. […] The fluorescence data were background corrected using buffer (for samples with only protein) or small molecule (for samples containing protein and 34RH) (Figure S4). The absorbance due to 34RH and protein at the excitation and emission wavelengths can suppress the observed fluorescence intensity to give rise to the inner filter effect. To account for this suppression, we corrected the fluorescence signals using Equation (3). This correction accounted for the fluorescence suppression due to the absorbance of both 34RH and the protein [47]. […]

Myc353–437 [2] = molecular target: T1, Myc353–437; experiment: Equimolar tyrosine fluorescence quenching titration; conditions: equimolar Myc353–437 and 34RH, 1x PBS, 25 °C, pH 7.4; 1:1 binding model
Description: 5 x 1 05 y = m 1 * x/ ( m 2 + x)
Wavel ength (nm ) [34Rh] µM
Fig S5. Equimolar Myc353-437 and 34RH interaction monitored via tyrosine fluorescence quenching. (A) 50 µM Myc353-437 in the presence (filled black squares) and absence (open black squares) equimolar 34RH in 1x PBS at 25 ℃, pH 7.4. (B) Equilibrium quenching of […]
µM. Error bars represent the standard error of three independent trials. Representative fluorescence signals were inner filter corrected to account for any fluorescence suppression due the absorbance of protein and 34RH [46]. The quenching data was fitted to a binding model shown below described in Dobrev et al.
Fraction Quenched = Q!"# × $
Here, Qmax is the fraction quenched for the formation of the complete complex between Myc353-437 and 34RH. [C]tot is the total concentration of Myc353-437 or 34RH and KD the dissociation constant.

MaxRH = molecular target: T2, MaxRH (Homo sapiens, UniProt P61244, K77E/M74V/Q72L/R75Q/R76A/Y73S); experiment: Tyrosine fluorescence quenching titration; format: binding; conditions: for Kd: 1 µM MaxRH, read-out: dissociation constant (KD)
T2 construct: 6xHis tag + TEV site (N, cleaved yes); made in house; host or cells: E. coli BL21(DE3) pLysS
T2 sequence (P61244 whole entry Q72L/Y73S/M74V/R75Q/R76A/K77E): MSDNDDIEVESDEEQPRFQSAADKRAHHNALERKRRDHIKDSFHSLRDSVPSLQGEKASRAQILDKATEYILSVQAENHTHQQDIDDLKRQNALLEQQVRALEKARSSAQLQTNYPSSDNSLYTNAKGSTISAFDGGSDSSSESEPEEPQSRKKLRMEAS
Description: as §1
(§2) For excess 34RH tyrosine fluorescence quenching experiments, samples were prepared with the following buffer components: sterile filtered water, 1xPBS (137 mM NaCl, 2.7 mM KCl, 4.3 mM Na2HPO4, 1.4 mM KH2PO4), and 5% total DMSO. The pH of the buffer was adjusted to 6 or 7.4 depending on the experiment performed. Three separate samples were prepared in 1xPBS and 5% total DMSO: one containing 50 μM 34RH alone, one containing 1 μM of protein and 50 μM 34RH, and one containing 1 μM protein alone. For the 34RH containing samples, the compound was delivered from a 1 mM DMSO stock. These samples were then serially diluted two-fold from 50 μM 34RH to 1.56 μM 34RH. All samples for fluorescence measurements maintained a final 5% DMSO concentration.
(§3) The samples were incubated for at least 15 min before fluorescence was measured. The samples were excited at 274 nm, and the emission spectra were obtained from 285 to 340 nm using 5 nm excitation and 5 nm emission slits using a Horiba Fluoromax 4 fluorometer. The fluorescence data were background corrected using buffer (for samples with only protein) or small molecule (for samples containing protein and 34RH) (Figure S4). The absorbance due to 34RH and protein at the excitation and emission wavelengths can suppress the observed fluorescence intensity to give rise to the inner filter effect. To account for this suppression, we corrected the fluorescence signals using Equation (3). This correction accounted for the fluorescence suppression due to the absorbance of both 34RH and the protein [47]. (3) Fcorr=Fobs∗ 10^Aex+ Aem/2
(§4) Here, the corrected fluorescence is Fcorr, the background-subtracted observed fluorescence is Fobs, and Aex and Aem are the total absorbance at the excitation and emission wavelengths, respectively. The amount of protein fluorescence quenched by 34RH at a particular concentration was calculated using Fcorr at λ = 304 nm (Equation (4)). (4) Fraction Quenched=1−Fcorr304nm of Protein +34RH/ Fcorr304nm of Protein only
(§5) The quenching data were fit to a Langmuir binding isotherm using Equation (5), from which the dissociation constant (KD) was obtained. Here, Qmax describes the maximum fraction quenched, [L]T is the total 34RH concentration, and [P]T is the total protein concentration. The total concentration of the protein was 1 µM for all fluoresce experiments conducted at a constant protein concentration. (5) Fraction Quenched=Qmax∗([L]T+P]T+ KD−(L]T+P]T+ KD)^2−4 ∗ L]T ∗ P]T/2∗[L]T

MaxRH-N78E = molecular target: T3, MaxRH-N78E (Homo sapiens, UniProt P61244, K77E/M74V/N78E/Q72L/R75Q/R76A/Y73S); experiment: Tyrosine fluorescence quenching titration; format: binding; conditions: MaxRH-N78E mutant
T3 construct: 6xHis tag + TEV site (N, cleaved yes); made in house; host or cells: E. coli BL21(DE3) pLysS
T3 sequence (P61244 whole entry Q72L/Y73S/M74V/R75Q/R76A/K77E/N78E): as the sequence (P61244 whole entry Q72L/Y73S/M74V/R75Q/R76A/K77E) above, with N78E counted along it
Description: as §1, §2, §3, §4, §5

MaxRH-Y115F/Y123F = molecular target: T4, MaxRH-Y115F/Y123F (Homo sapiens, UniProt P61244, K77E/M74V/Q72L/R75Q/R76A/Y115F/Y123F/Y73S); experiment: Tyrosine fluorescence quenching titration; format: binding; conditions: 1 µM MaxRH-Y115F/Y123F
T4 construct: 6xHis tag + TEV site (N, cleaved yes); made in house; host or cells: E. coli BL21(DE3) pLysS
T4 sequence (P61244 whole entry Q72L/Y73S/M74V/R75Q/R76A/K77E/Y115F/Y123F): as the sequence (P61244 whole entry Q72L/Y73S/M74V/R75Q/R76A/K77E) above, with Y115F, Y123F counted along it
Description: as §1, §2, §3, §4, §5

Myc353–437 A401E = molecular target: T5, Myc353–437 A401E (Homo sapiens, UniProt P01106, A416E); experiment: Tyrosine fluorescence quenching titration; format: binding; conditions: Myc353–437 A401E mutant
T5 construct: We constructed Myc353–437 A401E to determine if the same flanking residue would be permissive; 6xHis tag + TEV site (N, cleaved yes); made in house; host or cells: E. coli BL21(DE3) pLysS
T5 sequence (P01106 368-452 A416E): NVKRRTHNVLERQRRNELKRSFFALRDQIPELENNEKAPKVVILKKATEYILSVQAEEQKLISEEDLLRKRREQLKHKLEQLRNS
Description: as §1, §2, §3, §4, §5

Myc353–437 E410N = molecular target: T6, Myc353–437 E410N (Homo sapiens, UniProt P01106, E425N); experiment: Tyrosine fluorescence quenching titration; format: binding; conditions: Myc353–437 E410N mutant
T6 construct: 6xHis tag + TEV site (N, cleaved yes); made in house; host or cells: E. coli BL21(DE3) pLysS
T6 sequence (P01106 368-452 E425N): as the sequence (P01106 368-452 A416E) above, with E49A, E58N counted along it
Description: as §1, §2, §3, §4, §5

Myc402–412 peptide = molecular target: T7, Myc402–412 peptide (Homo sapiens, UniProt P01106); experiment: Tyrosine fluorescence quenching titration; format: binding
T7 construct: purchased Genscript; host or cells: solid phase peptide synthesis
Description: as §1, §2, §3, §4, §5

T1 sequence (P01106 368-452): as the sequence (P01106 368-452 A416E) above, with E49A counted along it

Work on O=C1NC(=S)S/C1=C\c1ccc(C(=O)O)cc1 [34RH, (Z)-4-((4-oxo-2-thioxothiazolidin-5-ylidene)methyl)benzoic acid] yielded a Kd (Myc353–437 [1]) of 3.9 ± 1.3 µM, a Kd (Myc353–437 [2]) of 5.9 ± 0.8 µM and a Kd (MaxRH; pH 6) of 9.1 ± 3.9 µM. The Kd (MaxRH; pH 7.4) was 23.4 ± 1.1 µM, the “affinity weaker than in the Myc context” value (MaxRH; MaxRH vs Myc353–437, pH 7.4) was “about 6 fold” and the “affinity weaker relative to the peptide” value (MaxRH; MaxRH vs Myc402–412 peptide, pH 7.4) was about 2 fold. The “improvement of binding to MaxRH at pH 6” value (MaxRH; pH 6 vs pH 7.4) was 2.5 fold, the “binding by titratable tyrosine quenching” value (MaxRH-N78E) was “complete loss of observable binding” and the Kd (MaxRH-Y115F/Y123F) was 14.9 ± 1.9 µM. For the same compound, the “binding by tyrosine quenching” value (Myc353–437 A401E) was “no detectable binding”, the “binding by tyrosine quenching” value (Myc353–437 E410N) was “eliminated binding” and the “change in affinity, Myc402–412 peptide vs Myc353–437” value (Myc402–412 peptide) was 3 fold. The “difference in affinity between Myc353–437 and Myc402–412 contexts” value (Myc402–412 peptide) was “less than 0.7 kcal mol^−1” and the Kd (Myc402–412 peptide; 1 µM Myc402–412 peptide, excess 34RH, Langmuir binding isotherm) was 11.5 ± 1.2 µM.

Source: article PMC9775153, “Portability of a Small-Molecule Binding Site between Disordered Proteins” (Biomolecules, 2022)
